Assay results from patent US6528535B2, “Bicyclic inhibitors of protein farnesyl transferase” (Warner-Lambert Company, priority 1997, dated 2003).
Counter-ions that a name gives are not always drawn. Like-named read-outs stand apart in the source and are kept apart here.

Legend:
[1] = molecular target: T1, SF9 affinity purified rat FPT (Rattus norvegicus, UniProt Q02293+Q04631); assay: PFT (farnesyl protein transferase) inhibitory activity, radiolabeled farnesyl pyrophosphate / biotinyl peptide bead assay; type: biochemical; settings: read-out: FTase, IC50
T1 construct: made in house; host or cells: Sf9 insect cells
Experimental: The protein:farnesyl transferase (PFT) or farnesyl protein transferase (FPT) inhibitory activity of compounds of the present invention were assayed in HEPES buffer (pH 7.4) containing 5 mM potassium phosphate and 20 μM ZnCl2. The solution also contained 5 mM DTT (dithiothreitol), 5 mM MgCl2, and 0.1% PEG 8000. Assays were performed in 96 well plates (Wallec) and employed solutions composed of varying concentrations of a compound of the present invention in 10% DMSO (dimethylsulfoxide). Upon addition of both substrates, radiolabeled farnesyl pyrophosphate ([1^3H], specific activity 15-30 Ci/mmol, final concentration 134 nM) and (biotinyl)-Ahe-Thr-Lys-Cys-Val-Ile-Met ([3aS[3a alpha, 4 beta, 6a alpha]-hexahydro-2-oxo-1H-thieno[3,4-d]imidazole-5-pentanoic acid]-[7-aminoheptanoic acid]-Thr-Lys-Cys-Val-Ile-Met) (Ahe is 7-aminoheptanoic acid, Thr is threonine, Lys is lysine, Cys is cysteine, Val is valine, Ile is isoleucine, and Met is methionine) (final concentration 0.2 μM), the enzyme reaction was started by addition of SF9 affinity purified rat FPT. After incubation at 30° C. for 30 minutes, the reaction was terminated by diluting the reaction 2.5-fold with a stop buffer containing 1.5 M magnesium acetate, 0.2 M H3PO4, 0.5% BSA (bovine serum albumin), and strepavidin beads (Amersham) at a concentration of 1.3 mg/mL. After allowing the plate to settle for 30 minutes at room temperature, radioactivity was quantitated on a microbeta counter (Model 1450, Wallec). The assay was also carried out without 5 mM potassium phosphate.

[2] = average of two tests unless n is given in parentheses
[3] = Examples 56-74, parallel synthesis array: single test, values adjusted to account for the purity of the sample

Row | Compound | melting point [°C] | IC50 [1, 2] [µM] | IC50 [1, 3] [µM]
1 | COc1ccc(C=C2CCc3cc(OCCn4ccnc4)ccc3C2=O)cc1 [Example 24, 6-(2-Imidazole-1-yl-ethoxy)-2-(4-methoxy-benzylidene)-3,4-dihydro-2H-naphthalen-1-one] | 132 to 133 | 0.88 | –
2 | CSc1ccc(C=C2CCc3cc(OCCn4ccnc4)ccc3C2=O)cc1 [Example 4] | 161 to 161.5 | 0.078 | –
3 | O=C1C(=Cc2ccc([N+](=O)[O-])s2)CCc2cc(OCCn3ccnc3)ccc21 [Example 22, 6-(2-Imidazole-1-yl-ethoxy)-2-(5-nitro-thiophen-2-ylmethylene)-3,4-dihydro-2H-naphthalen-1-one] | > 240 | 0.37 | –
4 | CSc1ccc(C=C2CCc3cc(OCCn4ccnc4)ccc3C2=O)s1 [Example 19, 6-(2-Imidazole-1-yl-ethoxy)-2-(5-methylsulfanyl-thiophen-2-ylmethylene)-3,4-dihydro-2H-naphthalen-1-one] | 102 to 104 | 0.7 | –
5 | CC(COc1ccc2c(c1)CCCC2=O)n1ccnc1 (centres unmarked) [Example 78, 6-[2-(1H-1-Imidazolyl)propoxy]-1,2,3,4-tetrahydro-1-naphthalenone] | 132 to 135 | 2.6 | –
6 | CC(=C1CCc2cc(OCCc3c[nH]cn3)ccc2C1=O)c1ccccc1 (as salt: HCl) [Example 40, 6-[2-(1H-Imidazole-4-yl)-ethoxy]-2-(1-phenyl-ethylidene)-3,4-dihydro-2H-naphthalen-1-one] | 170 to 172 | – | –
7 | O=C1C(=Cc2cccs2)CCc2cc(OC(Cn3ccnc3)c3ccccc3)ccc21 (centres unmarked) [Example 81, 6-(2-Imidazol-1-yl-1-phenyl-ethoxy)-2-thiophen-2-ylmethylene-3,4-dihydro-2H-naphthalen-1-one] | – | 0.037 | –
8 | O=C1/C(=C/c2c(Cl)cccc2Cl)CCc2cc(OCCn3ccnc3)ccc21 [Example 62, 2-[(E)-1-(2,6-Dichlorophenyl)methylidene]-6-[2-(1H-1-imidazolyl)ethoxy]-1,2,3,4-tetrahydro-1-naphthalenone] | – | – | 0.54
9 | O=C1/C(=C/c2ccccc2Cl)CCc2cc(OCCn3ccnc3)ccc21 [Example 56, 2-[(E)-1-(2-Chlorophenyl)methylidene]-6-[2-(1H-1-imidazolyl)ethoxy]-1,2,3,4-tetrahydro-1-naphthalenone] | – | – | 0.36
10 | O=C1/C(=C/c2cccc(Cl)c2)CCc2cc(OCCn3ccnc3)ccc21 [Example 57, 2-[(E)-1-(3-Chlorophenyl)methylidene]-6-[2-(1H-1-imidazolyl)ethoxy]-1,2,3,4-tetrahydro-1-naphthalenone] | – | – | 0.42
11 | O=C1/C(=C/c2cc(Cl)cc(Cl)c2)CCc2cc(OCCn3ccnc3)ccc21 [Example 64, 2-[(E)-1-(3,5-Dichlorophenyl)methylidene]-6-[2-(1H-1-imidazolyl)ethoxy]-1,2,3,4tetrahydro-1-naphthalenone] | – | – | 0.57
12 | COc1cccc(/C=C2\CCc3cc(OCCn4ccnc4)ccc3C2=O)c1OC [Example 66, 2-[(E)-1-(2,3-Dimethoxyphenyl)methylidene]-6-[2-(1H-1-imidazolyl)ethoxy]-1,2,3,4-tetrahydro-1-naphthalenone] | – | – | 1.84
13 | O=C1/C(=C/C2CCCCC2)CCc2cc(OCCn3ccnc3)ccc21 [Example 45, 2-[(E)-1-Cyclohexylmethylidene]-6-[2-(1H-1-imidazolyl)ethoxy]-1,2,3,4-tetrahydro-1-naphthalenone, hydrochloride] | – | 5.8 | –
14 | CC(C)(CNC(=O)CON=C1CCCc2cc(OCCn3ccnc3)ccc21)c1ccccc1 [Example 55, 2-[6-(2-Imidazol-1-yl-ethoxy)-3,4-dihydro-2H-naphthalen-1-ylideneaminooxy]-N-(2-methyl-2-phenyl-propyl)-acetamide] | – | 0.6 | –
15 | O=C1/C(=C/c2cccs2)CNc2cc(OCCn3ccnc3)ccc21 [Example 49, 7-[2-(1H-1-Imidazolyl)ethoxy]-3-[(E)-1-(2-thienyl)methylidene]-1,2,3,4-tetrahydro-4-quinolinone] | 211 to 213 | – | –
